From publication PMC4106346, “The Oligomeric States of the Purified Sigma-1 Receptor Are Stabilized by Ligands” (The Journal of Biological Chemistry, 2014)
Where a name gives a salt, the structure may show the parent alone.

What was measured:
[1] = target: T1, sigma-1 receptor (S1R) (Cavia porcellus, UniProt Q60492); test: ligand stabilization of the purified oligomer at […] °C, analytical SEC; type: binding; parameters: gene SIGMAR1; MBP-4A-S1R, purified oligomer (peak 1)
[2] = target: T2, sigma-1 receptor (S1R) (Cavia porcellus, UniProt Q60492, H97A); test: radioligand filtration binding, […] (+)-[3H]pentazocine
T2 construct: gene SIGMAR1; MBP-4A-S1R

[3] = target: T1, sigma-1 receptor (S1R); test: titration by ligand stabilization of the oligomer, analytical SEC with tryptophan fluorescence; type: binding; parameters: gene SIGMAR1
[4] = target: T1, sigma-1 receptor (S1R); test: ligand stabilization of the purified oligomer, analytical SEC; type: binding; parameters: gene SIGMAR1; MBP-4A-S1R, purified oligomer (peak 1)

T1 sequence (Q60492 whole entry): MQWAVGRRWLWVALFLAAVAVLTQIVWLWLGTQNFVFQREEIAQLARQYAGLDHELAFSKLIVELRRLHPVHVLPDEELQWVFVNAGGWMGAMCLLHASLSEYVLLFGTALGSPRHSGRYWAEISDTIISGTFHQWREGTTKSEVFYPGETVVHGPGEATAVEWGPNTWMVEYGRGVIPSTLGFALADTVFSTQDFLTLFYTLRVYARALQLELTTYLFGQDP
T2 sequence (Q60492 whole entry H97A): as the sequence (Q60492 whole entry) above, with H97A counted along it

In the case of c1ccc(CCCCN2CCC(c3ccccc3)CC2)cc1 [4-PPBP, 4-phenyl-1-(4-phenylbutyl)piperidine maleate], the “ligand stabilization of the purified oligomer at 37 °C, analytical SEC” value [1] is reported as “Tight-binding ligands 4-PPBP, BD-1047 and others stabilized the oligomeric states”.
With CC(C)=CCN1CC[C@]2(C)c3cc(O)ccc3C[C@H]1[C@H]2C [(+)-pentazocine] the “% of nonmutated binding” value [2] was ~ 50 % of nonmutated binding.
Molecule CN(C)CCN(C)CCc1ccc(Cl)c(Cl)c1 [BD-1047, N-[2-(3,4-dichlorophenyl)ethyl]-N-methyl-2-(dimethylamino)ethylamine dihydrobromide] has a Kd [3] of about 7 nM.
CCCCCCCCCCCCC/C=C/[C@@H](O)[C@@H](N)CO [sphingosine] was tested, and the “ligand stabilization of the purified oligomer, analytical SEC” value [4] was “the natural membrane lipid sphingosine gave a stabilizing interaction that was close to that of many of the synthetic ligands”.
